Reference: US20220023172A1, “COSMETIC COMPOSITIONS AND METHODS OF USE” (STC.UNM, priority 2018, published 2022)

Compound | melting point [°C]
COc1ccccc1/C=C/c1ccccc1F | 34 to 35
COc1cccc(/C=C/c2ccc(F)cc2)c1OC | 50 to 51
COc1ccc(OC)c(/C=C/c2ccc(F)cc2)c1 | 58 to 59
Cc1ccc(/C=C/c2ccc(F)c(F)c2)cc1 | 90 to 92
COc1ccc(/C=C/c2cc(F)ccc2F)cc1 | 109 to 110
Fc1ccc(/C=C/c2ccccc2F)cc1F | 85 to 86
COc1ccc(/C=C/c2ccc(F)c(F)c2)cc1 | 73 to 74
Fc1ccc(F)c(/C=C/c2ccccc2F)c1 | 79 to 81
Fc1cccc(/C=C/c2ccc(F)c(F)c2)c1 | 48 to 49
Fc1cccc(/C=C/c2cc(F)ccc2F)c1 | 73 to 74
Fc1cccc(/C=C/c2ccc(F)cc2F)c1 | 60 to 61
Fc1ccc(/C=C/c2ccccc2F)c(F)c1 | 84 to 85
Cc1ccc(/C=C/c2ccc(F)cc2F)cc1 | 72 to 73
Fc1ccc(/C=C/c2cc(F)ccc2F)cc1 | 76 to 77
COc1cccc(/C=C/c2ccc(C)cc2)c1OC | 38 to 40
COc1cccc(/C=C/c2ccccc2OC)c1 | 49 to 50
COc1cccc(/C=C/c2cc(OC)ccc2OC)c1 | 48 to 49
COc1cccc(/C=C/c2ccc(C(F)(F)F)cc2)c1OC | 67 to 69
